Data reported in US8629300B2, “Arylamine-substituted divinyl fluorenes and their use for electrophotographic applications, and for OLEDs (organic light emitting devices)” (Sensient Imaging Technologies GmbH, priority 2006, dated 2014).

Assay: Solubility analysis in methylen chloride or THF
Assay type: physicochemical
Experimental: Compound 12 complies with the solubility requirements set by the industry of 1 g substance/6 ml methylen chloride or THF. This compound was scaled up to 35 g. The compound was brought to an HPLC purity of >99.5% by using conventional purification methods, like e.g. recrystallization or column chromatography.

Cc1ccc(N(c2ccc(C)cc2)c2ccc(/C=C/c3ccc4c(c3)C(C)(C)c3cc(/C=C/c5ccc(N(c6ccc(C)cc6)c6ccc(C)cc6)cc5)ccc3-4)cc2)cc1 [Compound 12, 2,7-Bis-(4-di-p-tolylaminophenylethenyl)-9,9-dimethyl-9H-fluorene]
solubility (complies with the solubility requirements set by the industry): ≥ 1 g substance/6 ml
